Measured values reported in paper PMC7433010, “Exploration of multi‐target effects of 3‐benzoyl‐5‐hydroxychromen‐2‐one in Alzheimer’s disease cell and mouse models” (Aging Cell, 2020).

Key:
Format in all cases: in vivo, mouse
CREB = experiment: Western blot of CREB in hippocampus of STZ‐treated 3 × Tg‐AD mice; conditions: among the three groups
Experimental: In addition, isolated hippocampal and cortex tissues from transgenic mice (as described in Animal studies) were homogenized and extracted proteins (10 µg) were separated and blotted. After being blocked, the membranes were probed with antibody against mouse NRF2 (1:500; Sigma-Aldrich), CREB (1:500; Millipore), pCREB (S133) (1:1000; Millipore), or GAPDH (1:1000; MDBio), and the immune complexes detected as described above.
(§1) Mice harboring APPSwe, PS1M146V, and […] transgenes (3×Tg-AD) (Oddo et al., 2003) were purchased from the Jackson Laboratory (004807; Bar Harbor, ME, USA). Six-month-old male homozygous 3×Tg-AD mice were group housed at 20–25°C and 60% relative humidity under a daily 12-h light/12-h dark cycle, with assess to food and water ad libitum. Mice were randomly divided into 3 groups: – streptozocin (STZ), STZ, and STZ/LM-031 (n = 10 per group). STZ-induced hyperglycemia was used to accelerate the development of AD phenotype (Chen et al., 2014). Briefly, the mice were fasted for 12 h each day prior to intraperitoneal (i.p.) injection of STZ ([…]; Sigma-Aldrich) or vehicle (0.1 M sodium citrate pH4.5) for 4 times (days 2, 3, 9, and 10) (Chen et al., 2019). Mouse body weight was measured and blood glucose level was measured on days 1, 8, 15, 22, and 29 using a blood glucose meter (Bioland Technology, Taipei, Taiwan). […]

[1] = test system: STZ‐induced hyperglycemic 3 × Tg‐AD mice; experiment: Open‐field test in STZ‐treated 3 × Tg‐AD mice; conditions: day 24; 40 mg/kg i.p.
Experimental: as §1, with “Taiwan). LM-031 (40 mg/kg) or vehicle (DMSO:Cremophor EL:0.9% saline = 1:2:7) was intraperitoneally injected every day for 22 days from days 15 to 36. All animal procedures were ethically approved by the Institutional Animal Care and Use Committee of National Taiwan Normal University, Taipei, Taiwan (Permit Number: 103002) and were conducted in compliance with the ARRIVE (Animal Research: Reporting In Vivo Experiments) guidelines.” for “Taiwan).”

[2] = test system: STZ‐induced hyperglycemic 3 × Tg‐AD mice; experiment: Morris water maze task in STZ‐treated 3 × Tg‐AD mice; conditions: for Morris water maze latency to hidden platform: 40 mg/kg i.p.
Experimental: Mice harboring APPSwe, PS1M146V, and […] transgenes (3×Tg-AD) (Oddo et al., 2003) were purchased from the Jackson Laboratory (004807; Bar Harbor, ME, USA). Six-month-old male homozygous 3×Tg-AD mice were group housed at 20–25°C and 60% relative humidity under a daily 12-h light/12-h dark cycle, with assess to food and water ad libitum. Mice were randomly divided into 3 groups: – streptozocin (STZ), STZ, and STZ/LM-031 (n = 10 per group). STZ-induced hyperglycemia was used to accelerate the development of AD phenotype (Chen et al., 2014). Briefly, the mice were fasted for 12 h each day prior to intraperitoneal (i.p.) injection of STZ ([…]; Sigma-Aldrich) or vehicle (0.1 M sodium citrate pH4.5) for 4 times (days 2, 3, 9, and 10) (Chen et al., 2019). Mouse body weight was measured and blood glucose level was measured on days 1, 8, 15, 22, and 29 using a blood glucose meter (Bioland Technology, Taipei, Taiwan). LM-031 (40 mg/kg) or vehicle (DMSO:Cremophor EL:0.9% saline = 1:2:7) was intraperitoneally injected every day for 22 days from days 15 to 36. All animal procedures were ethically approved by the Institutional Animal Care and Use Committee of National Taiwan Normal University, Taipei, Taiwan (Permit Number: 103002) and were conducted in compliance with the ARRIVE (Animal Research: Reporting In Vivo Experiments) guidelines.
The water maze apparatus consisted of a circular pool with diameter 100 cm and height 76 cm, a submerged platform 1 cm below the water surface, four types of cues providing distal landmarks in the testing room, and a video camera suspended 250 cm above the center of the pool and connected to a video tracking system. The pool was filled up with water (24–26°C, 35 cm high) rendered opaque by the addition of nontoxic white paint. Mice relied on external cues to find the hidden platform in opaque water. One day prior to spatial training, all mice underwent pretraining to examine animals’ swimming ability and to acclimatize them to the pool. For pretraining (day 29), each mouse was placed in the pool to swim for 60 sec. After three trials, a platform was placed in the center of the pool and the mouse was allowed to remain there for 20 sec. For training (days 30–33), the platform was placed in a quadrant and each mouse received four trials per day for 4 consecutive days, with a cue signaling the platform position. The submerged platform remained there and entry points changed semi-randomly throughout all trials. The trial ended either when the mouse climbed onto the platform or when 60 seconds had elapsed. At the end of each trial the mouse was placed on the platform and faced the cue for 20 sec, learning where the platform was. […] All the data were analyzed by PhenoTracker.

O=C(c1ccccc1)c1cc2c(O)cccc2oc1=O [LM‐031, 3‐benzoyl‐5‐hydroxychromen‐2‐one]
relative total CREB level in hippocampus (CREB): not significantly different | open‐field distance traveled and inactive time [1]: No significant change | Morris water maze duration in target quadrant ([2]; probe trials 2 and 48 hr (days 34 and 36), STZ 17 s, – STZ 26 s): 24 s | Morris water maze latency to hidden platform ([2]; testing on day 34, STZ 39 s, – STZ 21 s): 26 s | Morris water maze latency to hidden platform ([2]; training day 3, STZ 43 s, – STZ 31 s): 31 s | Morris water maze latency to hidden platform ([2]; training day 4, STZ 40 s, – STZ 26 s): 30 s
